Patent publication US4870097A, “Pharmaceutical use of derivatives of tryptophan” (priority 1984, dated 1989)

What was measured:
[1] = tested on: analgesic activity of morphine; assay: Tail Flick Test: increase in the analgesic effect of morphine; type: in vivo, rats; settings: for percentage variation in the latency of the pain sensation, 10' / percentage variation in the latency of the pain sensation, 20' / percentage variation in the latency of the pain sensation, 30' / percentage variation in the latency of the pain sensation, 45' / percentage variation in the latency of the pain sensation, 60' / percentage variation in the latency of the pain sensation, 90' / M(10'-90') average percentage variation: compound 10 mg/kg i.p. + morphine 2 mg/kg (row Morphine: alone); for percentage variation in the latency of the pain sensation, 10' / percentage variation in the latency of the pain sensation, 20' / percentage variation in the latency of the pain sensation, 30' / percentage variation in the latency of the pain sensation, 45' / percentage variation in the latency of the pain sensation, 60' / percentage variation in the latency of the pain sensation, 90': ± S.E.; for M(10'-90') average percentage variation: mean 10'-90'; for Potency ratio relative to morphine alone: rat, in vivo
Protocol: Increase in the analgesic effect of analgesic-narcotic drugs in rats in the Tail Flick Test
The method is that described by Harris et al. (J. Pharmacol. Exp. Ther. 143 (1964) 141-148).
Male rats are used which have a weight of about 150-200 g and which have not been fasting. A point is chosen on the tail and this is irradiated by a heat source (75° C.) and the time (in seconds) for which the animal remains without moving its tail is measured.
A maximum period of time under the heat source of 8 seconds is chosen after which the animal is, in any case, removed in order to avoid tissue damage. The measurement is effected before (controls) and after treatment with the drugs.
. The percentage variation is calculated for each individual animal by the following formula: [formula] The measurements are carried out 10, 20, 30, 45, 60 and 90 minutes after treatment with the analgesics.
The results obtained are given in Table 1 which records the groups treated and the doses administered, the
average percentage variations (calculated on groups of five animals) in […]

[2] = tested on: guinea pig gall bladder contracted with CCK-8; assay: Anti-CCK activity on guinea pig gall bladders in vitro; type: biochemical; settings: CCK-8 10 ng/ml, concentration antagonising 50% of contracting effect
Protocol: A longitudinal strip of guinea pig gall bladder is placed in a bath of Krebs for isolated organs at a temperature of 32° C. and oxygenated continuously with an oxygen-CO2 mixture (95-5 V/V).
The […] contractions are detected by means of a force transducer and recorded.
The gall bladder is contracted with the use of a CCK-8 solution at a concentration of 10 ng/ml; the antagonistic activity of the compounds of the invention towards the contracting effect of the CCK is determined with the use of different concentrations, the ED50 value, that is the concentration of the compound in mcg/ml capable of antagonising 50% of the contracting effect of the CCK, being determined.
The results obtained are set out in the following table which gives the compounds tested and the ED50 values which are calculated by the method of regression on a test of at least three experiments for each compound studied.

[3] = tested on: activity of analgesic drugs; assay: Hot plate test: potentiation of analgesic drugs; type: in vivo, rats; settings: analgesic alone i.p. (Prop 15, Oxy 50, Asa 100 mg/kg); for Positive Total X/25: 10'-60'
Protocol: The method is that described by Eddy et al. (J. Pharmac. Exp. Ther. 107, 385 (1953)).
Groups of five male rats having a weight of about 150 g and which have not been fasting are used.
The animals are placed on a metal plate which is on the bottom of a transparent cylinder heated to 55°±1° C. by an azeotropic boiling mixture (1:1 acetone-ethyl formate). The time which passes between the moment at which the animal is placed on the hot plate and the moment at which it licks its feet or tries to jump out of the cylinder is defined as the reaction time. The control reaction time is measured 10 and 5 minutes before the administration of the drugs and 10, 20, 30, 45, 60, 90 minutes afterwards. The animals are left on the plate for a maximum period of 30 seconds.
The response to the administration of the product is considered positive if at least a doubling of the normal reaction time is seen. The results obtained are given in Table 2 which records the groups treated, the dose administered and the stay times on the plate expressed as the number of positive responses over the number treated.

[4] = tested on: tolerance induced by morphine; assay: Antagonism to the development of tolerance to repeated administration of morphine HCl (tail flick); type: in vivo, rats
Protocol: Several of the compounds of the invention were examined to determine any capacity to antagonise the development of tolerance induced by morphine. Groups of six male rats having a weight of about 200-250 were used.
At intervals of 24 hours from the first treatment (time 0), each animal (except for the control group treated with a physiological solution) received 3 mg/kg of morphine hydrochloride i.p. together with 3 mg/kg i.p. of the compounds indicated (with the exception of the group treated solely with morphine).
The determination of the threshold for the pain stimulus was effected at 15°, 30', 45' and 60' intervals from the treatment by the "tail flick" test.

## O=C(N[C@@H](Cc1c[nH]c2ccccc12)C(=O)O)OCc1ccc(I)cc1 [Compound 4]
[1]
  percentage variation in the latency of the pain sensation, 10': 62.8 ± 22.8%
  percentage variation in the latency of the pain sensation, 20': 76.9 ± 14.4%
  percentage variation in the latency of the pain sensation, 30': 85.3 ± 13.9%
  percentage variation in the latency of the pain sensation, 45': 56.4 ± 18.2%
  percentage variation in the latency of the pain sensation, 60': 48.1 ± 16.9%
  percentage variation in the latency of the pain sensation, 90': 19.4 ± 11.1%
  M(10'-90') average percentage variation: 58.2%
  Potency ratio relative to morphine alone: 1.95
[2]
  Anti CCK-8 activity, ED50: 48.2 µg/mL

## O=C(N[C@@H](Cc1c[nH]c2ccccc12)C(=O)O)c1ccc(Br)cc1 [Compound 13]
[1]
  percentage variation in the latency of the pain sensation, 10': 26.7 ± 5.6%
  percentage variation in the latency of the pain sensation, 20': 72.6 ± 13.0%
  percentage variation in the latency of the pain sensation, 30': 77.2 ± 10.0%
  percentage variation in the latency of the pain sensation, 45': 86.2 ± 8.9%
  percentage variation in the latency of the pain sensation, 60': 38.8 ± 11.3%
  percentage variation in the latency of the pain sensation, 90': 12.6 ± 9.8%
  M(10'-90') average percentage variation: 52.3%
  Potency ratio relative to morphine alone: 1.75
[2]
  Anti CCK-8 activity, ED50: 158.0 µg/mL

## CCc1ccc(C(=O)N[C@@H](Cc2c[nH]c3ccccc23)C(=O)O)cc1 [Compound 19]
[1]
  percentage variation in the latency of the pain sensation, 10': 41.9 ± 12.8%
  percentage variation in the latency of the pain sensation, 20': 43.9 ± 19.5%
  percentage variation in the latency of the pain sensation, 30': 61.3 ± 18.1%
  percentage variation in the latency of the pain sensation, 45': 49.4 ± 19.5%
  percentage variation in the latency of the pain sensation, 60': 28.5 ± 17.0%
  percentage variation in the latency of the pain sensation, 90': 14.4 ± 12.9%
  M(10'-90') average percentage variation: 39.9%
  Potency ratio relative to morphine alone: 1.34
[2]
  Anti CCK-8 activity, ED50: 135.2 µg/mL

## CCCCC1C(=O)N(c2ccccc2)N(c2ccc(O)cc2)C1=O (centres unmarked) [Oxyphenylbutazone, reference compound]
[3]
  positive responses over the number treated, 10': 2/5
  Positive Total X/25: 7
  positive responses over the number treated, 20': 1/5
  positive responses over the number treated, 30': 2/5
  positive responses over the number treated, 45': 2/5
  positive responses over the number treated, 60': 0/5

## CCCc1ccc(C(=O)N[C@@H](Cc2c[nH]c3ccccc23)C(=O)O)cc1 [Compound 22]
[1]
  percentage variation in the latency of the pain sensation, 10': 18.5 ± 5.3%
  percentage variation in the latency of the pain sensation, 20': 39.3 ± 10.5%
  percentage variation in the latency of the pain sensation, 30': 32.2 ± 7.9%
  percentage variation in the latency of the pain sensation, 45': 37.1 ± 13.9%
  percentage variation in the latency of the pain sensation, 60': 35.5 ± 10.0%
  percentage variation in the latency of the pain sensation, 90': 24.5 ± 6.6%
  M(10'-90') average percentage variation: 31.2%
  Potency ratio relative to morphine alone: 1.05
[2]
  Anti CCK-8 activity, ED50: 25.7 µg/mL

## Cc1cccc(C(=O)N[C@@H](Cc2c[nH]c3ccccc23)C(=O)O)c1 [Compound 21]
[1]
  percentage variation in the latency of the pain sensation, 10': 30.5 ± 19.7%
  percentage variation in the latency of the pain sensation, 20': 89.0 ± 11.0%
  percentage variation in the latency of the pain sensation, 30': 93.9 ± 6.1%
  percentage variation in the latency of the pain sensation, 45': 85.9 ± 14.1%
  percentage variation in the latency of the pain sensation, 60': 99.2 ± 0.8%
  percentage variation in the latency of the pain sensation, 90': 56.3 ± 17.4%
  M(10'-90') average percentage variation: 77.3%
  Potency ratio relative to morphine alone: 2.59
[2]
  Anti CCK-8 activity, ED50: IN (inactive up to 400 mcg/ml)

## O=C(N[C@@H](Cc1c[nH]c2ccccc12)C(=O)O)c1ccc(Cl)cc1 [Compound 12]
[1]
  percentage variation in the latency of the pain sensation, 10': 42.2 ± 19.4%
  percentage variation in the latency of the pain sensation, 20': 50.5 ± 17.0%
  percentage variation in the latency of the pain sensation, 30': 69.7 ± 19.8%
  percentage variation in the latency of the pain sensation, 45': 68.9 ± 13.4%
  percentage variation in the latency of the pain sensation, 60': 32.7 ± 20.1%
  percentage variation in the latency of the pain sensation, 90': 16.3 ± 7.4%
  M(10'-90') average percentage variation: 49.1%
  Potency ratio relative to morphine alone: 1.65
[2]
  Anti CCK-8 activity, ED50: 206.0 µg/mL

## O=C(N[C@@H](Cc1c[nH]c2ccccc12)C(=O)O)c1ccc(I)cc1 [Compound 15]
[1]
  percentage variation in the latency of the pain sensation, 10': 77.7 ± 13.8%
  percentage variation in the latency of the pain sensation, 20': 81.7 ± 12.3%
  percentage variation in the latency of the pain sensation, 30': 91.0 ± 9.0%
  percentage variation in the latency of the pain sensation, 45': 89.0 ± 11.0%
  percentage variation in the latency of the pain sensation, 60': 70.4 ± 17.2%
  percentage variation in the latency of the pain sensation, 90': 60.3 ± 12.6%
  M(10'-90') average percentage variation: 78.3%
  Potency ratio relative to morphine alone: 2.63
[2]
  Anti CCK-8 activity, ED50: IN (inactive up to 400 mcg/ml)

## CC(=O)Oc1ccccc1C(=O)O [Acetylsalicylic acid, reference compound]
[3]
  positive responses over the number treated, 10': 1/5
  Positive Total X/25: 7
  positive responses over the number treated, 20': 2/5
  positive responses over the number treated, 30': 2/5
  positive responses over the number treated, 45': 2/5
  positive responses over the number treated, 60': 0/5

## CCC(=O)O[C@](Cc1ccccc1)(c1ccccc1)[C@H](C)CN(C)C [Propoxyphene, reference compound]
[3]
  positive responses over the number treated, 10': 2/5
  Positive Total X/25: 11
  positive responses over the number treated, 20': 2/5
  positive responses over the number treated, 30': 3/5
  positive responses over the number treated, 45': 3/5
  positive responses over the number treated, 60': 1/5

## CN1CC[C@]23c4c5ccc(O)c4O[C@H]2[C@@H](O)C=C[C@H]3[C@H]1C5 [Morphine, morphine, reference compound]
[1]
  percentage variation in the latency of the pain sensation, 10': 10.8 ± 4.0%
  percentage variation in the latency of the pain sensation, 20': 54.2 ± 17.0%
  percentage variation in the latency of the pain sensation, 30': 46.6 ± 21.0%
  percentage variation in the latency of the pain sensation, 45': 41.7 ± 16.0%
  percentage variation in the latency of the pain sensation, 60': 32.0 ± 17.0%
  percentage variation in the latency of the pain sensation, 90': -6.4 ± 10.0%
  M(10'-90') average percentage variation: 29.8%
[4]; day 0, 3 mg/kg i.p. + morphine HCl 3 mg/kg i.p. (row Morphine: alone)
  percentage variation in the latency time, day 0: 35.83%
[4]; day 1, 3 mg/kg i.p. + morphine HCl 3 mg/kg i.p. (row Morphine: alone)
  percentage variation in the latency time, day 1: 37.43%
[4]; day 2, 3 mg/kg i.p. + morphine HCl 3 mg/kg i.p. (row Morphine: alone)
  percentage variation in the latency time, day 2: 30.33%
[4]; day 3, 3 mg/kg i.p. + morphine HCl 3 mg/kg i.p. (row Morphine: alone)
  percentage variation in the latency time, day 3: 16.06%
[4]; day 4, 3 mg/kg i.p. + morphine HCl 3 mg/kg i.p. (row Morphine: alone)
  percentage variation in the latency time, day 4: 22.46%
[4]; day 5, 3 mg/kg i.p. + morphine HCl 3 mg/kg i.p. (row Morphine: alone)
  percentage variation in the latency time, day 5: 9.63%
[4]; day 6, 3 mg/kg i.p. + morphine HCl 3 mg/kg i.p. (row Morphine: alone)
  percentage variation in the latency time, day 6: 7.28%
[4]; day 7, 3 mg/kg i.p. + morphine HCl 3 mg/kg i.p. (row Morphine: alone)
  percentage variation in the latency time, day 7: 1.95%
[4]; days 0-7, 3 mg/kg + morphine (row Morphine: alone)
  regression line % Effect versus Day: % Effect = - 5.34 Day + 38.72
[4]; from the straight lines of regression, groups C, D and E extrapolated
  day on which activity falls to 0 / inactive level is reached: sixth
